Laboratory results from EP0055490A1, “Tetrahydro-1,2,4-oxadiazin-5-one derivatives, processes for their preparation and medicines containing these compounds” (RICHTER GEDEON VEGYÉSZETI GYÁR RT, priority 1980, dated 1982).

Tests used:
Acute toxicity (LD50) = conditions: mouse, in vivo, po; single peroral dose, 14 days observation, mice; read-out: Peroraler LD50-Wert (converted)
Source text: (§1) Die pharmakologischen Wirkungen der erfindungsgemäßen Tetrahydro-1,2,4-oxadiazin-5-onderivate der allgemeinen Formel I wurden in Tierversuchen nach den üblichen pharmakologischen Verfahrensweisen nachgewiesen, wobei als Vergleichssubstanzen die anerkannt gut wirksamen bekannten Handelsprodukte 5,5-Diphenylhydantoin [Vergleichssubstanz A] und 3-Methyl-5-äthyl-5-phenylhydantoin [Vergleißhssubstanz B] gleicher Wirkungsrichtung verwendet wurden. Die Tierversuche wurden mit CFLP-Mäusen (LATI, Gödöllo, Ungarn) von gemischtem Geschlecht (Körpergewicht: 18 bis 22 g) mit Gruppen von je 10 Tieren durchgeführt. Die zu untersuchenden Verbindungen wurden in einer 5%-igen wäßrigen Lösung von Polyoxyäthylensorbitanmonooleat [Tween 80® suspendiert und diese Suspensionen wurden.auf peroralem Wege mit einer Sonde den Tieren verabreicht. Die Wirkstoffe wurden in den zur Untersuchung der krampfhemmenden beziehungsweise antikonvulsiven Wirkung durchgeführten Versuchen in Dosen von 20 mg/kg Körpergewicht und zur Messung der neurotoxischen Wirkung in Dosen von 80 mg/kg Körpergewicht verabreicht. Die Wirkungen wurden 1 Stunde nach der Verabreichung durch die im folgenden beschriebenen Verfahrensweisen gemessen.
Die Toxizität der zu untersuchenden Verbindungen wurde nach 1-maliger Verabreichung von verschiedenen Dosen durch 14 Tage lange Beobachtung der Tiere ermittelt. Die LD50-Werte (die bei 50% der Tiere tödlichen Dosen) wurden auf Grund des Prozentsatzes der innerhalb 14 Tage verendeten Tiere berechnet.

CFLP-Mäusen [1] = test: Inhibition of pentamethylenetetrazole (pentetrazole) convulsion; assay type: in vivo; conditions: Mus musculus, sc; 20 mg/kg peroral, 1 hour after dosing, groups of 10 mice; 125 mg/kg Pentamethylentetrazol subcutaneous; read-out: Hemmwirkung in % in Bezug auf den Pentamethylentetrazolkrampf tonischen Streckkrampf
Source text: as §1
b) Hemmwirkung gegen den Pentamethylentetrazolkrampf [Pentetrazolkrampf]
Es wurden 125 mg Pentamethylentetrazol/kg Körpergewicht nach der Verfahrensweise von Cr. N. Everett und R. K. Richards (J. Pharmacol. Exp: Therap. 81 [1944], 402) den Tieren subkutan verabreicht. 1 Stunde nach der Verabreichung des zu untersuchex den Wirkstoffes wurde die Wirkung beobachtet: Als Schutiwirkung wurde das Unterbleiben des klonischen Krampfes beriehungsweise des tonischen Streckkrampfes der hinteren GliedmaBen bewertet.

CFLP-Mäusen [2] = test: Maximal electroshock [MES] anticonvulsant test; assay type: in vivo; conditions: Mus musculus, po; 20 mg/kg peroral, measured 1 hour after dosing, groups of 10 mice; corneal electrode 20 mA, 0,2 s; protection = absence of tonic hindlimb extension; read-out: Hemmwirkung in % in Bezug auf den maximalen Elektroschock
Source text: as §1
a) Maximaler Elektroschock [MES]
Die Tiere wurden nach der Verfahrensweise von E. A. Swinyard und Mitarbeitern (J. Pharmacol. 106 [1952], 319) mit einer Hornhautelektrode beziehungsweise Corneal--Elektrode (20 mA, 0,2 Sekunde) geschockt. 100% der Blindversuchs- beziehungsweise Kontrolltiere reagierten auf diesen Reiz mit einem tonischen Streckkrampf (extensorischen Krampf) der hinteren Gliedmaßen. Das Unterbleiben dieser Reaktion wurde als unter der Wirkung der Behandlung eingetretener Schutz gewertet.

Compound | LD50 at 336 h (Acute toxicity (LD50)) [mg/kg] | responders at 20 mg/kg (CFLP-Mäusen [1]) [%] | responders at 20 mg/kg (CFLP-Mäusen [2]) [%]
CC(=O)N1OC(Cc2ccccc2)C(=O)NC1c1ccccc1 (racemic) [Beispiel 60] | 1000 | 20 | 
CC(=O)N1OC(C)C(=O)NC1c1ccccc1 (racemic) [Beispiel 61, 2-Acetyl-3-phenyl-6-methyltetrahydro-1,2,4-oxadiazin-5-on] | 1000 | 50 | 20
CC(=O)N1OCC(=O)NC1c1ccccc1 (stereo not drawn) [Beispiel 2, 2-Acetyl-3-phenyltetrahydro-1,2,4-oxadiazin-5-on] | 1190 | 90 | 70
CC(=O)N1OCC(=O)N(C(C)=O)C1c1ccccc1 (stereo not drawn) [Beispiel 8, 2,4-Diacetyl-3-phenyltetrahydro-1,2,4-oxadiazin-5-on] | 1000 | 40 | 60
CC(=O)N1OCC(=O)NC1c1ccc(F)cc1 (stereo not drawn) [Beispiel 13, 2-Acetyl-3-(4'-fluorphenyl)-tetrahydro-1,2,4-oxadiazin-5-on] | 800 | 40 | 40
CC(=O)N1OCC(=O)NC1c1ccc(Br)cc1 (stereo not drawn) [Beispiel 14] | 800 |  | 40
CC(=O)N1OCC(=O)NC1c1cccc2ccccc12 (stereo not drawn) [Beispiel 15] | 800 |  | 40
CC(=O)N1OCC(=O)NC1c1cccs1 (stereo not drawn) [Beispiel 16] | 800 | 40 | 20
O=C1CONC(c2ccc(O)cc2)N1 (stereo not drawn) [Beispiel 63] | 800 | 20 | 40
CC(=O)N1OCC(=O)NC12CCCCC2 [Beispiel 83] | 1000 |  | 40
CC(=O)N1OCC(=O)NC1c1ccc(C(=O)O)cc1 (stereo not drawn) [Beispiel 84] | 1000 |  | 40
CCOC(=O)N1OCC(=O)NC1c1ccccc1 (stereo not drawn) [Beispiel 89] | 1000 | 20 | 
O=C1NC(=O)C(c2ccccc2)(c2ccccc2)N1 [Vergleichssubstanz A, 5,5-Diphenylhydantoin, reference compound] | 279 | 80 | 90
CCC1(c2ccccc2)NC(=O)N(C)C1=O (stereo not drawn) [Vergleichssubstanz B, 3-Methyl-5-äthyl-5-phenylhydantoin, reference compound] | 476 | 50 | 10
